According to ChEMBL document CHEMBL3525902, “In vitro metabolism of oxymetazoline: evidence for bioactivation to a reactive metabolite” (Drug Metab Dispos, 2011):

What was measured:
[1] = Drug level in NADPH supplemented rabbit liver S9 fraction treated with 50 uM oxymetazoline assessed as compound-N-acetyl cysteine conjugate formation in presence of N-acetyl cysteine by LC-MS/MS method; type: ADME, subcellular, Oryctolagus cuniculus
Cytochrome P450 2C19 [2] = biological target: T1, Cytochrome P450 2C19 (Homo sapiens, UniProt P33261); test: Activity of human recombinant CYP2C19 assessed as 3-((1H-imidazol-2-yl)methyl)-6-(1-hydroxy-2-methylpropan-2-yl)-2,4-dimethylphenol formation at 50 uM in presence of NADPH by LC-MS/MS method; type: ADME; settings: recombinant enzyme
T1 sequence (P33261 whole entry): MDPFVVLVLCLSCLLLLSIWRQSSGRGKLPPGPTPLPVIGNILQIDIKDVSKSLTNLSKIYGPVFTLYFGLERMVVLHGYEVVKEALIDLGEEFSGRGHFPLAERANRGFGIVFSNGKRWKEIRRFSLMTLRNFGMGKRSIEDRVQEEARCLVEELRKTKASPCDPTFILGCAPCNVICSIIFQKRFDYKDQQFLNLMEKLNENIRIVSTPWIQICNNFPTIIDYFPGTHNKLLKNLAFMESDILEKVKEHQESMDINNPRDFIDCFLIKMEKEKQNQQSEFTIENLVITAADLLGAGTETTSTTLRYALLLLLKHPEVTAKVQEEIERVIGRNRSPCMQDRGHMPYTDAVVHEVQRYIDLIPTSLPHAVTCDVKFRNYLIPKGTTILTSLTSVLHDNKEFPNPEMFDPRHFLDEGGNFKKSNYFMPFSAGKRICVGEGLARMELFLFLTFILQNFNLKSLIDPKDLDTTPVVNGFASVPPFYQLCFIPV

Cytochrome P450 2C19 [3] = biological target: T1, Cytochrome P450 2C19; test: Activity of human recombinant CYP2C19 assessed as 3-((1H-imidazol-2-yl)methyl)-6-tert-butyl-2,4-dimethylphenol formation at 50 uM in presence of NADPH by LC-MS/MS method; type: ADME; settings: recombinant enzyme
[4] = Drug metabolism in NADPH supplemented rabbit liver microsomes fraction assessed as 3-((4,5-dihydro-1H-imidazol-2-yl)methyl)-6-(1-hydroxy-2-methylpropan-2-yl)-2,4-dimethylphenol formation at 50 uM after 1 hr by LC-MS/MS method; type: ADME, Oryctolagus cuniculus
Liver microsome [5] = test: Drug metabolism in NADPH supplemented human liver microsomes fraction assessed as 3-((1H-imidazol-2-yl)methyl)-6-(1-hydroxy-2-methylpropan-2-yl)-2,4-dimethylphenol formation at 50 uM after 1 hr by LC-MS/MS method; type: ADME
[6] = Drug metabolism in NADPH supplemented rabbit liver microsomes fraction assessed as 3-((1H-imidazol-2-yl)methyl)-6-tert-butyl-2,4-dimethylphenol formation at 50 uM after 1 hr by LC-MS/MS method; type: ADME, Oryctolagus cuniculus
Cytochrome P450 2B6 = biological target: T2, Cytochrome P450 2B6 (Homo sapiens, UniProt P20813); test: Activity of human recombinant CYP2B6 assessed as metabolite formation at 50 uM in presence of NADPH by LC-MS/MS method; type: ADME; settings: recombinant enzyme
T2 sequence (P20813 whole entry): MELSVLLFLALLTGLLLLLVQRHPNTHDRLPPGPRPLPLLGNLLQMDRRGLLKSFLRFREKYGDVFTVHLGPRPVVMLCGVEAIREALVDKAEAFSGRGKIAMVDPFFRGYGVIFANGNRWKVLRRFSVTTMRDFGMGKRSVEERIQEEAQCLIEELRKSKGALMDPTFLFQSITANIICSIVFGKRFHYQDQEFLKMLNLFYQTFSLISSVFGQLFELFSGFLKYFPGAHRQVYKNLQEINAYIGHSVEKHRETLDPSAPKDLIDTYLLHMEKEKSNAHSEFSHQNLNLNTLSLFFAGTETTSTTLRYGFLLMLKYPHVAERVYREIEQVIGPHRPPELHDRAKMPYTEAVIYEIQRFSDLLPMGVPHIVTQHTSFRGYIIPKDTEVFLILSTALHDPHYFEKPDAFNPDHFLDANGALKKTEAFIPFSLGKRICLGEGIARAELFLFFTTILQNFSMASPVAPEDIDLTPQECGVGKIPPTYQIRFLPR

Liver microsome [7] = test: Drug metabolism in NADPH supplemented rat liver microsomes fraction assessed as 3-((1H-imidazol-2-yl)methyl)-6-tert-butyl-2,4-dimethylphenol formation at 50 uM after 1 hr by LC-MS/MS method; type: ADME
[8] = Drug metabolism in NADPH supplemented rabbit liver S9 fraction assessed as 3-((1H-imidazol-2-yl)methyl)-6-tert-butyl-2,4-dimethylphenol formation at 50 uM in presence of N-acetyl cysteine by LC-MS/MS method; type: ADME, subcellular, Oryctolagus cuniculus; settings: s9, 50 µM
Cytochrome P450 2E1 = Cytochrome P450 2E1 (Homo sapiens, UniProt P05181); test: Activity of human recombinant CYP2E1 assessed as metabolite formation at 50 uM in presence of NADPH by LC-MS/MS method; type: ADME; settings: recombinant enzyme
Chain of Cytochrome P450 2E1 (P05181 whole entry): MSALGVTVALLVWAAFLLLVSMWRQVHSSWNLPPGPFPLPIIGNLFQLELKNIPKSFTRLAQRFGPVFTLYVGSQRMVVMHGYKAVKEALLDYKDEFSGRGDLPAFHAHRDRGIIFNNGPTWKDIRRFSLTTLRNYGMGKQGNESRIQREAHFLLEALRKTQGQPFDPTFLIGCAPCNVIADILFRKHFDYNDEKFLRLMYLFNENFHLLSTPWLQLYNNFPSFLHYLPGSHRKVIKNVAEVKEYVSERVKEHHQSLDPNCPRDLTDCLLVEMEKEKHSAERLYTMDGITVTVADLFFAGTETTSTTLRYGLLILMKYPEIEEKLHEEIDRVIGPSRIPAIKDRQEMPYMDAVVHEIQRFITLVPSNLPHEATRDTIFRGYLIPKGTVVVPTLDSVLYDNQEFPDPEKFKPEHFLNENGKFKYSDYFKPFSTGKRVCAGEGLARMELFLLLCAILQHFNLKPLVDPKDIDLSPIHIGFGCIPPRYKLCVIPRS

Cytochrome P450 2D6 = Cytochrome P450 2D6 (Homo sapiens, UniProt P10635); test: Activity of human recombinant CYP2D6 assessed as metabolite formation at 50 uM in presence of NADPH by LC-MS/MS method; type: ADME; settings: recombinant enzyme
Chain of Cytochrome P450 2D6 (P10635 whole entry): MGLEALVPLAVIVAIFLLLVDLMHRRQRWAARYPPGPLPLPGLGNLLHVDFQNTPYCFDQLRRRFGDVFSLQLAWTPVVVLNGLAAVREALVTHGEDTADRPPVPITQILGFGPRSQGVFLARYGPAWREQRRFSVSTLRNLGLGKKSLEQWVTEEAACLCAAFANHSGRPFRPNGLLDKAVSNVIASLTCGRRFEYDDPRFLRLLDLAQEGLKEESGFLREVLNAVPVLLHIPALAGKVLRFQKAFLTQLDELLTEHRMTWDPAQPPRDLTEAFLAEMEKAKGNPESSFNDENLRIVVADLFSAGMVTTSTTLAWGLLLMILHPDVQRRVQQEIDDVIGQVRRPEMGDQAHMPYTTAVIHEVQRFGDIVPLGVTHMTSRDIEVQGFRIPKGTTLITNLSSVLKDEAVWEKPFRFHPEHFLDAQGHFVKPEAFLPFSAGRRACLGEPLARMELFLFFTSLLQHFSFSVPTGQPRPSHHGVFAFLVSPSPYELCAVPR

[9] = Retention time of the compound at 50 uM by LC-MS/MS method; type: physicochemical
Cytochrome P450 2C18 = biological target: T3, Cytochrome P450 2C18 (Homo sapiens, UniProt P33260); test: Activity of human recombinant CYP2C18 assessed as metabolite formation at 50 uM in presence of NADPH by LC-MS/MS method; type: ADME; settings: recombinant enzyme
T3 sequence (P33260 whole entry): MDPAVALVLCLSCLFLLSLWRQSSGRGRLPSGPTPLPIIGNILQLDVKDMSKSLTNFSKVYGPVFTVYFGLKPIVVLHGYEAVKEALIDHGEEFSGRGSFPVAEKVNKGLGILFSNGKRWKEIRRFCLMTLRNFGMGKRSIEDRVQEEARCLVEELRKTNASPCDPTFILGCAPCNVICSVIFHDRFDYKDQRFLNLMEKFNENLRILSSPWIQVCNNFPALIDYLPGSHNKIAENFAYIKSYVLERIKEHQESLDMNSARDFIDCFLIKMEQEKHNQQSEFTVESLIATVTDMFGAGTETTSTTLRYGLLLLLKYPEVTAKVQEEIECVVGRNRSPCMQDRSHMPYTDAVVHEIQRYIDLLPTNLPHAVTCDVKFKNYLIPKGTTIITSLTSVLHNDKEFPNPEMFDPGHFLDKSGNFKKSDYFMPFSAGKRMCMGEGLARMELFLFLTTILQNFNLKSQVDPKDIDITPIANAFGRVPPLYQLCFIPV

[10] = Drug metabolism in NADPH supplemented rabbit liver S9 fraction assessed as 3-((1H-imidazol-2-yl)methyl)-6-(1-hydroxy-2-methylpropan-2-yl)-2,4-dimethylphenol formation at 50 uM in presence of glutathione by LC-MS/MS method; type: ADME, subcellular, Oryctolagus cuniculus; settings: s9, 50 µM
Liver microsome [11] = test: Drug metabolism in NADPH supplemented human liver microsomes fraction assessed as 3-((1H-imidazol-2-yl)methyl)-6-tert-butyl-2,4-dimethylphenol formation at 50 uM after 1 hr by LC-MS/MS method; type: ADME
Cytochrome P450 2C9 = Cytochrome P450 2C9 (Homo sapiens, UniProt P11712); test: Activity of human recombinant CYP2C9 assessed as metabolite formation at 50 uM in presence of NADPH by LC-MS/MS method; type: ADME; settings: recombinant enzyme
Chain of Cytochrome P450 2C9 (P11712 whole entry): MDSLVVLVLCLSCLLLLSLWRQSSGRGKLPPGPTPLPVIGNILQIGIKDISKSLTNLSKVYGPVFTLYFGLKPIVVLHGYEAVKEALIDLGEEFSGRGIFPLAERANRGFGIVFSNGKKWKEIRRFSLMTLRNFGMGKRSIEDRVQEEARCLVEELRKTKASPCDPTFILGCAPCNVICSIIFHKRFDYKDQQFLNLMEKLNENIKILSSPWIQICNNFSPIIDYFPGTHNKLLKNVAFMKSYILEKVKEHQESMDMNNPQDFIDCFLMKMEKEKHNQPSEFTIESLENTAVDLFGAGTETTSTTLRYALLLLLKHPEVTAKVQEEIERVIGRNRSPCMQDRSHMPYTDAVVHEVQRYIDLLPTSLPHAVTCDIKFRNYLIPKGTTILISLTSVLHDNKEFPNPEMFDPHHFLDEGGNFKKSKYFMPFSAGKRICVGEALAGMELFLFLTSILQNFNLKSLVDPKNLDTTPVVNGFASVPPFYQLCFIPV

SMILES: Cc1cc(C(C)(C)C)c(O)c(C)c1CC1=NCCN1 [OXYMETAZOLINE]
- Drug metabolism [1]: metabolite_detected
- Drug metabolism (Cytochrome P450 2C19 [2]): metabolite_detected
- Drug metabolism (Cytochrome P450 2C19 [3]): metabolite_detected
- Drug metabolism [4]: metabolite_detected
- Drug metabolism (Liver microsome [5]): metabolite_detected
- Drug metabolism [6]: metabolite_detected
- Drug metabolism (Cytochrome P450 2B6): metabolite_not_detected
- Drug metabolism (Liver microsome [7]): metabolite_detected
- Drug metabolism [8]: metabolite_detected
- Drug metabolism (Cytochrome P450 2E1): metabolite_not_detected
- Drug metabolism (Cytochrome P450 2D6): metabolite_not_detected
- Retention_time [9]: 12.2 min
- Drug metabolism (Cytochrome P450 2C18): metabolite_not_detected
- Drug metabolism [10]: metabolite_detected
- Drug metabolism (Liver microsome [11]): metabolite_detected
- Drug metabolism (Cytochrome P450 2C9): metabolite_not_detected
